Measurements reported in US7375083B2, “Pharmaceutical compositions for prevention of overdose or abuse” (Shire LLC, priority 2003, dated 2008).
Read-outs that look alike come from different tables or passages of the source.

Tests used:
[1] = Intravenous bioavailability in rats, plasma d-amphetamine by ELISA; conditions: relative to amphetamine
[2] = Kitchen tests: release of amphetamine by water, acid, base and heat; conditions: heated to boiling for 20-60 minutes
[3] = Oral pharmacokinetics in rats, plasma d-amphetamine by ELISA; conditions: Oral, relative to amphetamine (first value where two are given)
[4] = Intranasal bioavailability of hydrocodone conjugates in rats, LC/MS/MS; conditions: male, Sprague-Dawley, rat, plasma, 1 mg/kg
[5] = Intravenous bioavailability of hydrocodone conjugates in rats, LC/MS/MS
[6] = Oral bioavailability of hydrocodone conjugates in rats, LC/MS/MS; conditions: male, Sprague-Dawley, rat, plasma, po
[7] = cited from earlier work; for Blood level: 12.5 mg dose
[8] = Intranasal plasma levels of oxycodone conjugates in rats, ELISA; conditions: intranasal 2 mg/kg
[9] = Oral plasma levels of oxycodone conjugates in rats, ELISA; conditions: oral 2 mg/kg
[10] = Intranasal bioavailability of oxycodone conjugates in rats, LC/MS/MS; conditions: 1 mg/kg dose
[11] = Intravenous bioavailability of oxycodone conjugates in rats, LC/MS/MS; conditions: 1 mg/kg dose; for AUC 0-1 h / AUC Percent OC / Cmax / Cmax Percent OC: oxycodone plus oxymorphone
[12] = intravenous, 1 mg/kg hydrocodone base content
[13] = male, Sprague-Dawley, rat, plasma, iv, 1 mg/kg

CC(Cc1ccccc1)NC(=O)C(N)Cc1ccccc1 (centres unmarked) [F-Amp]
Percent AUC [1]: 87% | Percent Cmax [1]: 89%

CC(Cc1ccccc1)NC(=O)CNC(=O)CNC(=O)CN (centres unmarked) [Gly3-Amp, 2-Amino-N-({[(1-methyl-2-phenyl-ethylcarbomyl)-methyl]-carbomyl}-methyl)-acetamide]
amphetamine detected after treatment: Baking Powder [2]: 0% | amphetamine detected after treatment: Baking Soda [2]: 0% | amphetamine detected after treatment: Tap Water [2]: 0% | amphetamine detected after treatment: Vinegar [2]: 0%

CC(Cc1ccccc1)NC(=O)C(O)C(O)C(O)C(O)CO (centres unmarked) [Gulonate-Amp]
Percent AUC [1]: 3% | Percent Cmax [1]: 5% | Percent AUC [3]: 1% | Percent Cmax [3]: 1%

COc1ccc2c3c1O[C@H]1C(=O)CC[C@H]4[C@@H](C2)N(C)CC[C@]314 [Hydrocodone, reference compound]
AUC ([4]; iv): 74.7 ng·h/mL | Cmax ([4]; iv): 543 ng/mL | concentration at 0 min ([4]; other: intranasal): 0 ng/mL | concentration at 5 min ([4]; other: intranasal): 441 ng/mL | concentration at 15 min ([4]; other: intranasal): 543 ng/mL | concentration at 30 min ([4]; other: intranasal): 227 ng/mL | concentration at 60 min ([4]; other: intranasal): 96 ng/mL | HC (hydrocodone) AUC, Percent relative to hydrocodone bitartrate [5, 12]: 100% | HC (hydrocodone) Cmax, Percent relative to hydrocodone bitartrate [5, 12]: 100% | AUC [5, 13]: 24.1 ng·h/mL | Cmax [5, 13]: 43 ng/mL | AUC ([6]; 1 mg/kg): 45.1 ng·h/mL | Cmax ([6]; 1 mg/kg): 114 ng/mL | concentration at 0 h ([6]; 1 mg/kg): 0 ng/mL | concentration at 0.1 h ([6]; 1 mg/kg): 114 ng/mL | concentration at 0.5 h ([6]; 1 mg/kg): 14.3 ng/mL | concentration at 1 h ([6]; 1 mg/kg): 7 ng/mL | concentration at 2 h ([6]; 1 mg/kg): 2.6 ng/mL | concentration at 4 h ([6]; 1 mg/kg): 1 ng/mL | AUC ([6]; 2 mg/kg): 38.2 ng·h/mL | Cmax ([6]; 2 mg/kg): 60.3 ng/mL | concentration at 0 h ([6]; 2 mg/kg): 0 ng/mL | concentration at 0.1 h ([6]; 2 mg/kg): 60.3 ng/mL | concentration at 0.5 h ([6]; 2 mg/kg): 15.6 ng/mL | concentration at 1 h ([6]; 2 mg/kg): 12.9 ng/mL | concentration at 2 h ([6]; 2 mg/kg): 3.4 ng/mL | concentration at 4 h ([6]; 2 mg/kg): 1.3 ng/mL | AUC ([6]; 5 mg/kg): 234 ng·h/mL | Cmax ([6]; 5 mg/kg): 629 ng/mL | concentration at 0 h ([6]; 5 mg/kg): 0 ng/mL | concentration at 0.1 h ([6]; 5 mg/kg): 629 ng/mL | concentration at 0.5 h ([6]; 5 mg/kg): 74.3 ng/mL | concentration at 1 h ([6]; 5 mg/kg): 80.8 ng/mL | concentration at 2 h ([6]; 5 mg/kg): 18.4 ng/mL | concentration at 4 h ([6]; 5 mg/kg): 4.9 ng/mL | AUC ([6]; 25 mg/kg): 419 ng·h/mL | Cmax ([6]; 25 mg/kg): 409 ng/mL | concentration at 0 h ([6]; 25 mg/kg): 0 ng/mL | concentration at 0.1 h ([6]; 25 mg/kg): 409 ng/mL | concentration at 0.5 h ([6]; 25 mg/kg): 154 ng/mL | concentration at 1 h ([6]; 25 mg/kg): 86.2 ng/mL | concentration at 2 h ([6]; 25 mg/kg): 83.3 ng/mL | concentration at 4 h ([6]; 25 mg/kg): 57.8 ng/mL | Therapeutic plasma concentration ([7]; in vivo): 1 to 30 ng/mL | Toxic plasma concentration ([7]; in vivo): greater than 100 ng/mL

C[C@@H](Cc1ccccc1)NC(=O)[C@@H](N)CCCCN [K-Amp]
Percent AUC [1]: 3% | Percent Cmax [1]: 3% | Percent AUC [3]: 98% | Percent Cmax [3]: 55%

COc1ccc2c3c1O[C@H]1C(OC(=O)[C@@H](NC(=O)[C@@H]4CCCN4C(=O)[C@@H](N)CCC(=O)O)C(C)C)=CC[C@@]4(OC(=O)[C@@H](NC(=O)[C@@H]5CCCN5C(=O)[C@@H](N)CCC(=O)O)C(C)C)[C@@H](C2)N(C)CC[C@]314 [[Glu-Pro-Val]2-OC]
% AUC [8]: 56% | % Cmax [8]: 65% | % AUC [9]: 142% | % Cmax [9]: 134%

COc1ccc2c3c1O[C@H]1C(OC(=O)[C@@H](NC(=O)[C@H](Cc4ccc(O)cc4)NC(=O)[C@@H](N)CCC(=O)O)C(C)C)=CC[C@@]4(OC(=O)[C@@H](NC(=O)[C@H](Cc5ccc(O)cc5)NC(=O)[C@@H](N)CCC(=O)O)C(C)C)[C@@H](C2)N(C)CC[C@]314 [[Glu-Tyr-Val]2-OC]
% AUC [8]: 18% | % Cmax [8]: 20% | % AUC [9]: 115% | % Cmax [9]: 103%

COc1ccc2c3c1O[C@H]1C(OC(=O)[C@@H](NC(=O)[C@H](CCC(=O)O)NC(=O)CN)C(C)C)=CC[C@@]4(OC(=O)[C@@H](NC(=O)[C@H](CCC(=O)O)NC(=O)CN)C(C)C)[C@@H](C2)N(C)CC[C@]314 [[Gly-Glu-Val]2-OC]
% AUC [8]: 29% | % Cmax [8]: 48% | % AUC [9]: 93% | % Cmax [9]: 61%

COc1ccc2c3c1O[C@H]1C(OC(=O)[C@@H](NC(=O)[C@H](Cc4ccc(O)cc4)NC(=O)CN)C(C)C)=CC[C@@]4(OC(=O)[C@@H](NC(=O)[C@H](Cc5ccc(O)cc5)NC(=O)CN)C(C)C)[C@@H](C2)N(C)CC[C@]314 [[Gly-Tyr-Val]2-OC]
% AUC [8]: 56% | % Cmax [8]: 54% | % AUC [9]: 92% | % Cmax [9]: 99%

CC[C@H](C)[C@H](N)C(=O)N[C@@H](Cc1ccc(O)cc1)C(=O)N[C@H](C(=O)OC1=CC[C@@]2(OC(=O)[C@@H](NC(=O)[C@H](Cc3ccc(O)cc3)NC(=O)[C@@H](N)[C@@H](C)CC)C(C)C)[C@H]3Cc4ccc(OC)c5c4[C@@]2(CCN3C)[C@H]1O5)C(C)C [[Ile-Tyr-Val]2-OC]
% AUC [8]: 3% | % Cmax [8]: 4% | % AUC [9]: 71% | % Cmax [9]: 82%

COc1ccc2c3c1O[C@H]1C(OC(=O)[C@@H](NC(=O)[C@H](Cc4ccc(O)cc4)NC(=O)[C@@H](N)CC(C)C)C(C)C)=CC[C@@]4(OC(=O)[C@@H](NC(=O)[C@H](Cc5ccc(O)cc5)NC(=O)[C@@H](N)CC(C)C)C(C)C)[C@@H](C2)N(C)CC[C@]314 [[Leu-Tyr-Val]2-OC]
% AUC [8]: 4% | % Cmax [8]: 5% | % AUC [9]: 131% | % Cmax [9]: 120%

COc1ccc2c3c1O[C@H]1C(OC(=O)[C@H](CC(C)C)NC(=O)[C@@H]4CCCN4C(=O)[C@@H]4CCCN4)=CC[C@@]4(OC(=O)[C@H](CC(C)C)NC(=O)[C@@H]5CCCN5C(=O)[C@@H]5CCCN5)[C@@H](C2)N(C)CC[C@]314 [[PPL]2-OC, [PPL]2-Oxycodone]
Oxycodone plus oxymorphone level at 5 Minutes [10]: 1380 | Oxycodone plus oxymorphone level at 15 Minutes [10]: 499 | Oxycodone plus oxymorphone level at 30 Minutes [10]: 390 | Oxycodone plus oxymorphone level at 60 Minutes [10]: 98 | AUC Percent OC ([10]; oxycodone plus oxymorphone): 61% | Cmax Percent OC ([10]; oxycodone plus oxymorphone): 65% | Oxycodone plus oxymorphone level at 5 Minutes [11]: 22 | Oxycodone plus oxymorphone level at 15 Minutes [11]: 19 | Oxycodone plus oxymorphone level at 30 Minutes [11]: 19 | Oxycodone plus oxymorphone level at 60 Minutes [11]: 43 | AUC 0-1 h [11]: 24 ng·h/mL | AUC Percent OC [11]: 29% | Cmax [11]: 43 ng/mL | Cmax Percent OC [11]: 43%

COc1ccc2c3c1O[C@H]1C(OC(=O)[C@@H](NC(=O)[C@H](CCC(=O)O)NC(=O)[C@@H]4CCCN4)C(C)C)=CC[C@@]4(OC(=O)[C@@H](NC(=O)[C@H](CCC(=O)O)NC(=O)[C@@H]5CCCN5)C(C)C)[C@@H](C2)N(C)CC[C@]314 [[Pro-Glu-Val]2-OC]
% AUC [8]: 34% | % Cmax [8]: 46% | % AUC [9]: 90% | % Cmax [9]: 82%

COc1ccc2c3c1O[C@H]1C(OC(=O)[C@@H](NC(=O)CNC(=O)[C@@H](N)CO)C(C)C)=CC[C@@]4(OC(=O)[C@@H](NC(=O)CNC(=O)[C@@H](N)CO)C(C)C)[C@@H](C2)N(C)CC[C@]314 [[Ser-Gly-Val]2-OC]
% AUC [8]: 64% | % Cmax [8]: 73% | % AUC [9]: 90% | % Cmax [9]: 92%

CC(N)Cc1ccccc1 (centres unmarked) [amphetamine]
Steady-state blood level ([7]; addicts orally consuming an average of 1000 mg per day): 2000 to 3000 ng/mL | Blood level at which peripheral effects (increased heart rate) start ([7]; in vivo): 20 ng/mL | Peak blood concentration ([7]; single oral dose of 10 mg, 2 hours): 35 ng/mL

CN[C@@H](C)Cc1ccccc1 [methamphetamine]
Urine concentration ([7]; 10 mg, first 24 hours): 500-4,000 ng/mL | Blood level ([7]; 6 hours): about 16 ng/mL | Blood level ([7]; 24 hours): about 10 ng/mL | Amphetamine concentration of methamphetamine abusers, average ([7]; abusers): 1,800 ng/mL | Methamphetamine concentration of methamphetamine abusers, average ([7]; abusers): 14,200 ng/mL | Amphetamine concentration of methamphetamine abusers ([7]; abusers, range): 1,000-9,000 ng/mL | Methamphetamine concentration of methamphetamine abusers ([7]; abusers, range): 2,400-33,300 ng/mL | Estimated lethal dose ([7]; adults): 1 g | Estimated lethal dose ([7]; children): 0.1 g | Maximum blood concentration ([7]; single dose of 10 mg, one hour): 30 ng/mL

Oxycodone Bitartrate
Oxycodone plus oxymorphone level at 5 Minutes [10]: 2128 | Oxycodone plus oxymorphone level at 15 Minutes [10]: 1003 | Oxycodone plus oxymorphone level at 30 Minutes [10]: 688 | Oxycodone plus oxymorphone level at 60 Minutes [10]: 278 | AUC 0-1 h ([10]; oxycodone plus oxymorphone): 428 ng·h/mL | AUC Percent OC ([10]; oxycodone plus oxymorphone): 100% | Cmax ([10]; oxycodone plus oxymorphone): 2128 ng/mL | Cmax Percent OC ([10]; oxycodone plus oxymorphone): 100% | Oxycodone plus oxymorphone level at 5 Minutes [11]: 99 | Oxycodone plus oxymorphone level at 15 Minutes [11]: 104 | Oxycodone plus oxymorphone level at 30 Minutes [11]: 94 | Oxycodone plus oxymorphone level at 60 Minutes [11]: 51 | AUC 0-1 h [11]: 82 ng·h/mL | AUC Percent OC [11]: 100% | Cmax [11]: 99 ng/mL | Cmax Percent OC [11]: 100%
